{"source": "patent US20240238314A1", "about": "“TREATMENT OF ESSENTIAL TREMOR” (Sage Therapeutics, Inc., priority 2021, published 2024)", "key": {"[1]": {"system": "individuals with essential tremor", "test": "Phase 2 placebo-controlled study, Compound 1 60 mg once daily for 28 days (reducible to 45 mg or 30 mg): TETRAS performance subscale part 4 upper limb tremor score and tremor amplitude", "assay_type": "in vivo, human", "protocol": "4) Upper limb tremor: Tremor is assessed during three maneuvers: forward horizontal reach posture, lateral “wing beating” posture and finger-nose-finger testing. Each upper limb is assessed and scored individually. The forward horizontal reach posture is held for 5 seconds. The lateral wing beating posture is held for 20 seconds. The finger-nose-finger movement is executed three times. Amplitude assessment should be estimated using the maximally displaced point of the hand at the point of greatest displacement along any single plane. For example, the amplitude of a pure supination-pronation tremor, pivoting around the wrist would be assessed at either the thumb or fifth digit.\nFor all three hand tremor ratings: 0=no tremor. 1=tremor is barely visible. 1.5=tremor is visible, but less than 1 cm. 2=tremor is 1-<3 cm amplitude. 2.5=tremor is 3-<5 cm amplitude. 3=tremor is 5-<10 cm amplitude. 3.5=tremor is 10-<20 cm amplitude. 4=tremor is >20 cm amplitude.\nAs used herein, “The Essential Tremor Rating Assessment Scale (TETRAS) performance subscale part 4 upper limb tremor total score” refers to the “upper limb tremor” under metric or characteristic 4 of the TETRAS performance subscale set forth above. Each of the three tasks are performed on each limb to give a total of 6 tasks, wherein each task is scored 0, 1, 1.5, 2, 2.5, 3, 3.5, or 4, and each score is added to give a total score no greater than 24.\n[formula] • wherein Tf is a final tremor amplitude; • Ti is an initial tremor amplitude; • Rf is a final tremor rating; • Ri is an initial tremor rating; • α is 0.05; and • N=6, for 6 tasks in TETRAS performance subscale part 4 upper limb tremor total score.\nParticipants were 18 to 80 years of age, inclusive, diagnosed of ET of at least 3 years duration with scores of at least 1.5 for each of the six items that comprised the combined total upper limb TETRAS (total performance subscale part 4) with the total score for the dominant upper limb (the sum of the 3 items for either the right or left upper limb, whichever is dominant) being at least 5.5, at both Screening and predose on Day 1.\nGroups received either Compound 1 as orally administered tablet(s) (each tablet providing 15 mg of Compound 1) or matching placebo at 1:1 ratio. Tablets were formulated as immediate release, white to off-white, round, film-coated tablets containing 15 mg of Compound 1, filler, disintegrant, lubricant, and glidant, wherein the tablets were formed using direct compression and coated with Opadry® II white as the film coating.\nParticipants were randomized to receive Compound 1 60 mg or placebo once daily in the morning on a 1:1 basis. If participants reported a TEAE considered by investigator to be related to Compound 1 and not tolerable, investigator might reduce the dose of Compound 1 from 60 mg in 15 mg decrements (i.e., 60 mg, to 45 mg, to 30 mg), as medically appropriate. If intolerable TEAEs persist at the 30 mg dose, Compound 1 was permanently stopped.\nThis study included a Screening Period of up to 28 days, a 29-day treatment period consisting of 28 days of dosing with the end of treatment visit intended to be on Day 29 at trough, and a 14-day follow-up period relative to final dose. Study patients were not taking other medications for essential tremor during the 28-day treatment period.\nThe model included the change from baseline at each visit as the dependent variable, treatment, baseline TETRAS performance subscale part 4 upper limb tremor score, assessment timepoint, and timepoint-by-treatment as explanatory variables. All explanatory variables were treated as a fixed effect. The main comparison was (difference in least mean square [LSMEAN]) between Compound 1 and placebo at the 29-day timepoint.\nModel-based point estimates (i.e., LSMEAN, 95% confidence intervals, and p-values) were reported where applicable. An unstructured covariance structure was used to model the within-subject errors. […]"}, "[2]": {"system": "individuals with essential tremor", "test": "Phase 2 study, Compound 1 60 mg once daily for 28 days: TETRAS ADL total score", "assay_type": "in vivo, human"}, "[3]": {"conditions": "Per-Protocol Set, Day 15, 5 hr postdose"}, "[4]": {"conditions": "Per-Protocol Set, Day 15, 8 hr postdose"}, "[5]": {"conditions": "Per-Protocol Set, Day 15, predose"}}, "data": [{"smiles": "COC[C@@]1(O)CC[C@H]2[C@@H](CC[C@@H]3[C@@H]2CC[C@]2(C)[C@@H](C(=O)Cn4nnc(C)n4)CC[C@@H]32)C1", "note": "[Compound 1]", "values": [{"measurement": "LSMean difference vs placebo in change from baseline in TETRAS performance subscale part 4 upper limb tremor total score", "setting": "[1]; Full Analysis Set, Day 22", "result": "−0.77"}, {"measurement": "Model-based LSMean (SE) change from baseline in TETRAS performance subscale part 4 upper limb tremor total score", "setting": "[1]; Full Analysis Set, Day 22", "result": "−2.10 (0.360)"}, {"measurement": "Frequency of % CFB in tremor amplitude category 15-<30%, number of participants", "setting": "[1]; Full Analysis Set, Day 29", "result": 5}, {"measurement": "Frequency of % CFB in tremor amplitude category 15-<30%, percent of participants", "setting": "[1]; Full Analysis Set, Day 29", "result": "(23.8)"}, {"measurement": "Frequency of % CFB in tremor amplitude category 30-<50%, number of participants", "setting": "[1]; Full Analysis Set, Day 29", "result": 6}, {"measurement": "Frequency of % CFB in tremor amplitude category 30-<50%, percent of participants", "setting": "[1]; Full Analysis Set, Day 29", "result": "(28.6)"}, {"measurement": "Frequency of % CFB in tremor amplitude category 50-<75%, number of participants", "setting": "[1]; Full Analysis Set, Day 29", "result": 3}, {"measurement": "Frequency of % CFB in tremor amplitude category 50-<75%, percent of participants", "setting": "[1]; Full Analysis Set, Day 29", "result": "(14.3)"}, {"measurement": "Frequency of % CFB in tremor amplitude category <15%, number of participants", "setting": "[1]; Full Analysis Set, Day 29", "result": 5}, {"measurement": "Frequency of % CFB in tremor amplitude category <15%, percent of participants", "setting": "[1]; Full Analysis Set, Day 29", "result": "(23.8)"}, {"measurement": "Frequency of % CFB in tremor amplitude category >75%, number of participants", "setting": "[1]; Full Analysis Set, Day 29", "result": 2}, {"measurement": "Frequency of % CFB in tremor amplitude category >75%, percent of participants", "setting": "[1]; Full Analysis Set, Day 29", "result": "(9.5)"}, {"measurement": "LSMean difference vs placebo in change from baseline in TETRAS performance subscale part 4 upper limb tremor total score", "setting": "[1]; Full Analysis Set, Day 29", "result": "−1.07 (−2.14, −0.00)"}, {"measurement": "Mean (SD) % CFB in TETRAS performance subscale part 4 upper limb tremor total score", "setting": "[1]; Full Analysis Set, Day 29", "result": "−18.05", "unit": "%"}, {"measurement": "Model-based LSMean (SE) change from baseline in TETRAS performance subscale part 4 upper limb tremor total score", "setting": "[1]; Full Analysis Set, Day 29", "result": "−2.31 (0.401)"}, {"measurement": "% CFB in Tremor Amplitude", "setting": "[1]; Full Analysis Set, Day 29, calculated from TETRAS part 4 ratings", "result": "−35.80", "unit": "%"}, {"measurement": "LSMean difference vs placebo in change from baseline in TETRAS performance subscale part 4 upper limb tremor total score", "setting": "[1]; Full Analysis Set, Day 29, listed as Cmpd 1", "result": "−1.07"}, {"measurement": "LSMean difference vs placebo in change from baseline in TETRAS performance subscale part 4 upper limb tremor total score", "setting": "[1]; Full Analysis Set, Day 42", "result": 0.62}, {"measurement": "Model-based LSMean (SE) change from baseline in TETRAS performance subscale part 4 upper limb tremor total score", "setting": "[1]; Full Analysis Set, Day 42", "result": "−1.23 (0.407)"}, {"measurement": "LSMean difference vs placebo in change from baseline in TETRAS performance subscale part 4 upper limb tremor total score", "setting": "[1]; Per-Protocol Set, Day 8", "result": "−0.97"}, {"measurement": "Model-based LSMean (SE) change from baseline in TETRAS performance subscale part 4 upper limb tremor total score", "setting": "[1]; Per-Protocol Set, Day 8", "result": "−1.78 (0.319)"}, {"measurement": "LSMean difference vs placebo in change from baseline in TETRAS performance subscale part 4 upper limb tremor total score", "setting": "[1]; [3]", "result": "−0.71"}, {"measurement": "Model-based LSMean (SE) change from baseline in TETRAS performance subscale part 4 upper limb tremor total score", "setting": "[1]; [3]", "result": "−2.83 (0.500)"}, {"measurement": "LSMean difference vs placebo in change from baseline in TETRAS performance subscale part 4 upper limb tremor total score", "setting": "[1]; [4]", "result": "−0.70"}, {"measurement": "Model-based LSMean (SE) change from baseline in TETRAS performance subscale part 4 upper limb tremor total score", "setting": "[1]; [4]", "result": "−2.66 (0.500)"}, {"measurement": "LSMean difference vs placebo in change from baseline in TETRAS performance subscale part 4 upper limb tremor total score", "setting": "[1]; [5]", "result": "−0.83"}, {"measurement": "Model-based LSMean (SE) change from baseline in TETRAS performance subscale part 4 upper limb tremor total score", "setting": "[1]; [5]", "result": "−1.94 (0.367)"}, {"measurement": "LSMean difference vs placebo in change from baseline in TETRAS performance subscale part 4 upper limb tremor total score", "setting": "[1]; Per-Protocol Set, Day 22", "result": "−1.15"}, {"measurement": "Model-based LSMean (SE) change from baseline in TETRAS performance subscale part 4 upper limb tremor total score", "setting": "[1]; Per-Protocol Set, Day 22", "result": "−2.38 (0.408)"}, {"measurement": "LSMean difference vs placebo in change from baseline in TETRAS performance subscale part 4 upper limb tremor total score", "setting": "[1]; Per-Protocol Set, Day 29", "result": "−1.37"}, {"measurement": "Model-based LSMean (SE) change from baseline in TETRAS performance subscale part 4 upper limb tremor total score", "setting": "[1]; Per-Protocol Set, Day 29", "result": "−2.50 (0.452)"}, {"measurement": "LSMean difference vs placebo in change from baseline in TETRAS performance subscale part 4 upper limb tremor total score", "setting": "[1]; Per-Protocol Set, Day 42", "result": 0.36}, {"measurement": "Model-based LSMean (SE) change from baseline in TETRAS performance subscale part 4 upper limb tremor total score", "setting": "[1]; Per-Protocol Set, Day 42", "result": "−1.48 (0.474)"}, {"measurement": "Percent reduction from baseline in tremor amplitude", "setting": "[1]; subjects with baseline TETRAS performance subscale part 4 upper limb tremor total score ≥12", "result": 41, "unit": "%"}, {"measurement": "LSMean Difference (CI) vs placebo in CFB in TETRAS ADL total score", "setting": "[2]; Baseline TETRAS ADL ≥ 28, Day 29", "result": "−1.47"}, {"measurement": "LSMean difference vs placebo in change from baseline in TETRAS ADL total score", "setting": "[2]; Full Analysis Set, Day 8", "result": "−2.80"}, {"measurement": "Change from baseline in TETRAS ADL subscale total score compared with placebo, in words", "setting": "[2]; Full Analysis Set, Day 29", "result": "numerically superior to placebo but failed to reach statistical significance"}, {"measurement": "LSMean difference vs placebo in change from baseline in TETRAS ADL total score", "setting": "[2]; Full Analysis Set, Day 29", "result": "−1.37 (−3.81, 1.08)"}]}]}
